Assay results as given in patent publication US12414995B2, “Bifunctional compounds comprising Apcin-A and their use in the treatment of cancer” (Northwestern University, priority 2019, dated 2025).

Experiments:
MDA-MB-435 eb cells [1] = system: MDA-MB-435 eb cells
MDA-MB-435 eb cells [2] = assay: cells; conditions: Homo sapiens, MDA-MB-435, read-out: growth inhibition
HIF1α = HIF1α accumulation by Western blot in MDA-MB-231 cells; assay type: cell-based; conditions: 10 hours; for HIF1α level: indicated dosages
Protocol: (§1) MDA-MB-231 cells treated with CP5V at indicated dosages for 10 hours were harvested for Western Blot.
MDA-MB-231 cells treated with VHL Ligand 1 at indicated dosages for 10 hours and collected for WB.
Relatively high potential dosage of VHL ligand 1 (VHL1), the VHL-binding moiety offered by CP5V, causes concern if it affects HIF1α, the substrate of VHL.

MDA-MB-231 cells [3] = assay: Cell cycle analysis by flow cytometry in MDA-MB-231 cells; assay type: cell-based; conditions: for mitotic arrest: double-thymidine synchronized
Protocol: . In this example, cell cycle analysis of MDA-MB-231 cells was performed after CP5V treatment. The MDA-MB-231 cells were initially synchronized by double-thymidine followed by treatment with CP5V for 16 hours. Cell cycle profile was then measured by flow cytometry.
(§2) Flow cytometry analysis. MDA-MB-231 and MDA-MB-435 cells were plated in a 6-cm dish and double-synchronized for 18 h and then 15 h with a 9-hour release with fresh medium between them. The cells were released and treated with DMSO, Apcin and CP5V at indicated concentrations for 24 h. After treatment, the cells were collected and stained with propidium iodide (PI) staining buffer and analyzed by flow cytometry.
(§3) Given that Cdc20-APC/C regulates mitotic progression through proteolysis of securin and cyclin B1, CP5V-mediated degradation of Cdc20 was examined for resultant changes of the protein level of securin and cyclin B1. […]. […]

MDA-MB-435 cells [4] = assay: Cell cycle analysis by flow cytometry in MDA-MB-435 cells; assay type: cell-based; conditions: for mitotic arrest: synchronized
Protocol: as §2, §3

Cdc20 [5] = target: T1, Cdc20 (Homo sapiens, UniProt Q12834); assay: Cdc20 degradation by Western blotting in MDA-MB-231 cells; conditions: MLN4924 5 μM with CP5V, 10 hours
Protocol: (§5) MCF-7, MDA-MB-231 cells were cultured in DMEM medium supplemented with 10% fetal bovine serum (FBS) and 1% penicillin-streptomycin. Flag-Cdc20 MDA-MB-231 cells were cultured in complete DMEM media introduced before with 1 μg/ml Tamoxifen. The Cdc20, cyclin-B and actin antibodies were purchased from Sigma. The actin antibodies were diluted 1:5000. The Cdc20, Cyclin-B and ubiquitin antibodies were diluted 1:1000. The agarose beads were purchased from Cell Signaling Technology.
(§6) The lysates were analyzed by SDS/PAGE. Western blotting was performed by transferring samples onto a nitrocellulose membrane, incubating in 5% milk in TBST (Tris-buffered Saline with Tween 20) at room temperature for 1 h and probing with indicated antibody overnight at 4° C. Membranes were visualized using the ECL prime western blotting detection reagent (GE Healthcare, RPN2232).
(§7) The time course for CP5V-induced Cdc20 degradation was also measured in both cell lines.

Cdc20 [6] = target: T1, Cdc20; assay: Cdc20 degradation by Western blotting in MCF-7 cells; conditions: various dosages
Protocol: as §5, §6, §7

Cdc20 [7] = target: T1, Cdc20; assay: Cdc20 ubiquitylation (immunoprecipitation, anti-ubiquitin immunoblot) in MDA-MB-231 cells; conditions: 2 μM, with MG-132
Protocol: Cdc20 were immunoprecipitated by antibody against Cdc20 followed by immunoblotting using anti-ubiquitin antibody.
Beads were then boiled for 5 min and analyzed by SDS/PAGE. Western blotting was performed according to standard protocols.
To confirm the CP5V-induced degradation of Cdc20 is mediated through the ubiquitin-proteasome pathway, the Cdc20 ubiquitylation in the absence and presence of CP5V as well as Apcin-A was measured.

Cdc20 mRNA = assay: Cdc20 RNA level by qRT-PCR in MDA-MB-231 cells; assay type: cell-based; conditions: indicated dosages, 10 hours
Protocol: MDA-MB-231 cells treated with CP5V at indicated dosages for 10 hours were harvested for RNA extraction, reverse-transcription, and further qRT-PCR.
To further confirm the conclusion that the CP5V-medicated degradation is depending on the ubiquitin-proteasome system, RT-PCR was conducted to measure the alteration of Cdc20 RNA levels in response to CP5V treatment.

Cdc27 = Cdc27 protein level by Western blot in MDA-MB-231 cells (specificity); assay type: cell-based; conditions: indicated dosages, 10 hours
Protocol: as §1
To test the specificity for CP5V in targeting Cdc20, the dosage experiment based on MDA-MB-231 cells was repeated and the alteration of protein levels for Cdc20 and Cdc27, another core subunit of anaphase-promoting complex, was measured.

cyclin B1 = assay: Cyclin B1 level by Western blotting in MDA-MB-231 cells; assay type: cell-based; conditions: indicated dose, 10 hours
Protocol: […]. Cdc20 and cyclin-B levels were then determined by Western blotting.
as §3

MDA-MB-231 cells [8] = assay: Cell proliferation CCK8 assay in MDA-MB-231 cells; assay type: cell-based; conditions: Homo sapiens, 72 h, read-out: IC50 of cell growth inhibition
Description: (§4) Cell proliferation assays.

MDA-MB-435 cells [9] = assay: Cell proliferation CCK8 assay in MDA-MB-435 cells; assay type: cell-based; conditions: Homo sapiens, 72 h, read-out: IC50 of cell growth inhibition
Description: as §4

[10] = system: Tamoxifen-resistant breast cancer cells; assay: Endocrine response of Tamoxifen-resistant breast cancer cells; assay type: cell-based
4T1 xenograft tumor = assay: Mouse 4T1 xenograft model; conditions: 100 mg/kg intraperitoneally twice per week
Protocol: In this model, 5×10^5 cells 4T1 cells in PBS were injected into the Balb/C mice mammary fat pad. When tumors were palpable, tumor growth was measured for 3 weeks and calculated as 0.52xLXWxW (L=Length, W=Width). […] The mice were sacrificed at the end of treatment, and the xenograft tumor was collected, formalin fixed, paraffin embedded, sectioned. Immunohistochemistry (IHC) was conducted with xenograft tumor and liver tissues to detect Cdc20, Ki67, Activate and Caspase-3.

MCF7 cells = assay: Clonogenic assay in MCF7 cells; conditions: 1 μM for 24 hours, then culture 2 weeks
Description: Data are presented as the mean±standard error of the mean (S.E.) of three independent samples (**p<0.01).

U2OS cells = assay: Cell survival CCK8 assay in U2OS cells; conditions: 72 hours
Protocol: (§8) The test was performed in triplicate (n=3). Data are mean±SEM.

22Rv1 cells = assay: Cell survival CCK8 assay in 22Rv1 cells; conditions: 72 hours
Protocol: as §8

LNCaP cells = assay: Cell survival CCK8 assay in LNCaP cells; conditions: 72 hours
Protocol: as §8

T1 sequence (Q12834 whole entry): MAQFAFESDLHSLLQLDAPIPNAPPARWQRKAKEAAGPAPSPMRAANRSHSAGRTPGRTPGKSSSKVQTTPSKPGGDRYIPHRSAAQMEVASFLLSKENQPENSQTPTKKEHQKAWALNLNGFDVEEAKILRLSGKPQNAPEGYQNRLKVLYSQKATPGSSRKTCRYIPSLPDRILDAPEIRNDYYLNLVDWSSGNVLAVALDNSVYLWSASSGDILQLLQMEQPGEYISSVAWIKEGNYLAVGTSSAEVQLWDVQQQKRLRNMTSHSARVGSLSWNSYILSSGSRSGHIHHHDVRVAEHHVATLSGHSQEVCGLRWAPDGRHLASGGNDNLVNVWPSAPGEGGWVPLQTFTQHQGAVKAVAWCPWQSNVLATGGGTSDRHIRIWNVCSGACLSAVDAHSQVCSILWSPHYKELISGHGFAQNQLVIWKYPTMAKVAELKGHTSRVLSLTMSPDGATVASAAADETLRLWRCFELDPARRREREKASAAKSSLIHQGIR

Compound: CC(=O)O[C@H]1C(=O)[C@@]2(C)[C@H]([C@H](OC(=O)c3ccccc3)[C@]3(O)C[C@H](OC(=O)[C@H](O)[C@@H](NC(=O)c4ccccc4)c4ccccc4)C(C)=C1C3(C)C)[C@]1(OC(C)=O)CO[C@@H]1C[C@@H]2O [paclitaxel, reference compound]
- cells survived (MDA-MB-435 eb cells [1]; 5 nM paclitaxel alone): about 92%
- inhibition at 0.005 µM (MDA-MB-435 eb cells [2]): < 10%

Compound: Cc1ncsc1-c1ccc(CNC(=O)[C@@H]2C[C@@H](O)CN2C(=O)[C@@H](N)C(C)(C)C)cc1 [VHL ligand 1]
- concentration that induced HIF-α accumulation (HIF1α): ≥ 1 µM
- HIF1α level (HIF1α): significant HIF1α is accumulated

Compound: Cc1ncc([N+](=O)[O-])n1CCOC(=O)NC(Nc1ncccn1)C(Cl)(Cl)Cl (centres unmarked) [Apcin]
- mitotic arrest (MDA-MB-231 cells [3]): no effect
- mitotic arrest (MDA-MB-435 cells [4]): no effect

Compound: NS(=O)(=O)OC[C@@H]1C[C@@H](n2ccc3c(N[C@H]4CCc5ccccc54)ncnc32)C[C@@H]1O [MLN4924]
- effect on CP5V-mediated Cdc20 degradation (Cdc20 [5]): inhibited the degradation of Cdc20 caused by CP5V

Compound: NCCCOC(=O)NC(Nc1ncccn1)C(Cl)(Cl)Cl (centres unmarked) [Apcin-A, 3-aminopropyl (2,2,2-trichloro-1-(pyrimidin-2-ylamino)ethyl)carbamate]
- Cdc20 protein level (degradation) (Cdc20 [6]): no degradation of Cdc20
- Cdc20 ubiquitylation (Cdc20 [7]): no obvious effect

Compound: Cc1ncsc1-c1ccc(CNC(=O)[C@@H]2C[C@@H](O)CN2C(=O)[C@H](NC(=O)CCOCCOCCOCCOCCOCCC(=O)NCCCOC(=O)NC(Nc2ncccn2)C(Cl)(Cl)Cl)C(C)(C)C)cc1 (stereo partly drawn) [CP5V, (R)-25-((2S,4R)-4-hydroxy-2-((4-(4-methylthiazol-5-yl)benzyl)carbamoyl)pyrrolidine-1-carbonyl)-26,26-dimethyl-5,23-dioxo-8,11,14,17,20-pentaoxa-4,24-diazaheptacosyl (2,2,2-trichloro-1-(pyrimidin-2-ylamino)ethyl)carbamate]
- Cdc20 mRNA level (Cdc20 mRNA): no significant change
- Cdc27 protein level (Cdc27): no Cdc27 protein level change
- HIF1α level (HIF1α): no obvious alteration of HIF1α
- cyclin B1 level (cyclin B1): largely accumulated
- cells arrested in the G2/M phase (MDA-MB-231 cells [3]; 2 μM): over 40%
- fraction of cells in the G0/G1 phase (MDA-MB-231 cells [3]; 2 μM, versus control cells): much lower compared to control cells
- mitotic arrest (MDA-MB-231 cells [3]): induces mitotic arrest
- cells arrested in the G2/M phase (MDA-MB-435 cells [4]; 2 μM): > 50%
- fraction of cells in the G0/G1 phase (MDA-MB-435 cells [4]; 2 μM, versus control cells): much lower compared to control cells
- mitotic arrest (MDA-MB-435 cells [4]): induces mitotic arrest
- IC50 (MDA-MB-231 cells [8]): 2600 nM
- IC50 (MDA-MB-435 cells [9]): 1990 nM
- re-sensitization to Tamoxifen [10]: re-sensitizes Tamoxifen-resistant breast cancer cells to Tamoxifen treatment
- Taxol-cytotoxic response of Taxol-resistant cells (MDA-MB-435 eb cells [1]; with 5 nM paclitaxel): significantly restored their Taxol-cytotoxic response
- inhibition at 5 µM (MDA-MB-435 eb cells [2]): > 50%
- Cdc20 expression in the xenograft tumor (IHC) (4T1 xenograft tumor): decreased Cdc20 expression
- Ki67 index in the tumor (IHC) (4T1 xenograft tumor): decreasing the Ki67 index
- effect on mice body weight (4T1 xenograft tumor): no significant effect
- expression of caspase-3 in the tumor (IHC) (4T1 xenograft tumor): did not change dramatically
- liver toxicity (4T1 xenograft tumor): no significant effect
- reduction of the size of the xenograft tumor compared to placebo (4T1 xenograft tumor; Balb/C mice): approximately 70%
- reduction of the weight of the xenograft tumor compared to placebo (4T1 xenograft tumor; Balb/C mice): approximately 70%
- colony formation (killing of breast cancer cells) (MCF7 cells): potent efficacy in killing breast cancer cells
- inhibition of cell growth (U2OS cells): significant inhibition of cell growth
- inhibition of cell growth (22Rv1 cells): significant inhibition of cell growth
- inhibition of cell growth (LNCaP cells): significant inhibition of cell growth
